The values below come from ChEMBL document CHEMBL5137108, “Calofolic Acid-A from Calophyllum scriblitifolium Bark Has Vasorelaxant Activity via Indirect PKA Activation Caused by PI-3 Kinase Inhibition in Rat Vascular Smooth Muscle Cells” (J Nat Prod, 2022).

Series [1] concerns VSMC. Description: Activation of PKA substrate phosphorylation in Wistar rat VSMCs at 100 uM incubated for 60 mins by Western blot analysis. As to conditions: filed as activator. Type of series: cell-based.
In series [2] the test system is VSMC. Briefly: Activation of PKA in isoproterenol-induced Wistar rat VSMCs assessed as increase in intracellular cAMP concentration at 100 uM measured 20 mins after ISO stimulation. Type of series: cell-based. The following applies: filed as activator.
The test system of series [3] is VSMC. Briefly: Activation of PKA substrate phosphorylation in isoproterenol-induced Wistar rat VSMCs at 10 uM preincubated for 60 mins followed by isoproterenol stimulation and measured upto 20 mins by Western blot analysis. Type of series: cell-based. The following applies: filed as activator, time 80.0 min.
The test system of series [4] is VSMC. Description: Activation of PKA substrate phosphorylation in isoproterenol-induced Wistar rat VSMCs at 100 uM preincubated for 60 mins followed by ISO stimulation and measured upto 30 mins by Western blot analysis. Type of series: cell-based. The following applies: filed as activator, time 90.0 min.
Series [5] has as its system VSMC. Description: Inhibition of isoproterenol-induced AKT phosphorylation at Ser473 residue in Wistar rat VSMCs at 50 uM preincubated for 60 mins followed by ISO stimulation and measured upto 30 mins by Western blot analysis. Type of series: cell-based. The following applies: time 90.0 min.
The test system of series [6] is VSMC. Briefly: Activation of PKA substrate phosphorylation in Wistar rat VSMCs at 50 uM incubated for 60 mins by Western blot analysis. Type of series: cell-based. As to conditions: filed as activator.
Series [7] concerns VSMC. Description: Activation of PKA substrate phosphorylation in Wistar rat VSMCs at 10 uM incubated for 60 mins in the presence of LY294002 by Western blot analysis. Type of series: cell-based. The following applies: filed as activator.
Series [8] concerns VSMC. Briefly: Activation of HSP20 phosphorylation in isoproterenol-induced Wistar rat VSMCs at 50 uM preincubated for 60 mins followed by ISO stimulation and measured upto 30 mins by Western blot analysis. Type of series: cell-based. As to conditions: filed as activator, time 90.0 min.
The test system of series [9] is VSMC. Briefly: Activation of PKA in isoproterenol-induced Wistar rat VSMCs assessed as fold increase in intracellular cAMP concentration at 50 uM measured 20 mins after ISO stimulation relative to isoproterenol. Type of series: cell-based. The following applies: filed as activator.
Series [10] can be described thus: Inhibition of recombinant human full length PI3K p110alpha/[…] alpha activity assessed as PIP3 generation using PI(4,5)P2 (PIP2) as substrate incubated for 3 hrs by competitive binding based colorimetric analysis.
Series [11] deals with VSMC. Briefly: Activation of PKA substrate phosphorylation in isoproterenol-induced Wistar rat VSMCs at 50 uM preincubated for 60 mins followed by ISO stimulation and measured upto 30 mins by Western blot analysis. As to conditions: filed as activator, time 90.0 min. Type of series: cell-based.
Series [12] has as its system VSMC. Briefly: Activation of HSP90 phosphorylation in Wistar rat VSMCs at 50 uM incubated for 60 mins by Western blot analysis. As to conditions: filed as activator. Type of series: cell-based.
Series [13] concerns the target cAMP-dependent protein kinase (PKA) (Homo sapiens) (UniProt P22694+P17612+P22612). Briefly: Activation of PKA substrate phosphorylation in HEK293 cells incubated for 60 mins by Western blot analysis. Type of series: cell-based. As to conditions: filed as activator.
The subject of series [14] is VSMC. Briefly: Inhibition of phenylephrine-induced MLC phosphorylation at Ser19 residue in Wistar rat VSMCs at 50 uM preincubated for 60 mins followed by phenylephrine stimulation and measured upto 30 mins by Western blot analysis. Type of series: cell-based. The following applies: time 90.0 min.
The target in series [15] is T1, Protein phosphatase 1 regulatory subunit 12A (Rattus norvegicus) (UniProt Q10728).
T1 sequence (whole entry): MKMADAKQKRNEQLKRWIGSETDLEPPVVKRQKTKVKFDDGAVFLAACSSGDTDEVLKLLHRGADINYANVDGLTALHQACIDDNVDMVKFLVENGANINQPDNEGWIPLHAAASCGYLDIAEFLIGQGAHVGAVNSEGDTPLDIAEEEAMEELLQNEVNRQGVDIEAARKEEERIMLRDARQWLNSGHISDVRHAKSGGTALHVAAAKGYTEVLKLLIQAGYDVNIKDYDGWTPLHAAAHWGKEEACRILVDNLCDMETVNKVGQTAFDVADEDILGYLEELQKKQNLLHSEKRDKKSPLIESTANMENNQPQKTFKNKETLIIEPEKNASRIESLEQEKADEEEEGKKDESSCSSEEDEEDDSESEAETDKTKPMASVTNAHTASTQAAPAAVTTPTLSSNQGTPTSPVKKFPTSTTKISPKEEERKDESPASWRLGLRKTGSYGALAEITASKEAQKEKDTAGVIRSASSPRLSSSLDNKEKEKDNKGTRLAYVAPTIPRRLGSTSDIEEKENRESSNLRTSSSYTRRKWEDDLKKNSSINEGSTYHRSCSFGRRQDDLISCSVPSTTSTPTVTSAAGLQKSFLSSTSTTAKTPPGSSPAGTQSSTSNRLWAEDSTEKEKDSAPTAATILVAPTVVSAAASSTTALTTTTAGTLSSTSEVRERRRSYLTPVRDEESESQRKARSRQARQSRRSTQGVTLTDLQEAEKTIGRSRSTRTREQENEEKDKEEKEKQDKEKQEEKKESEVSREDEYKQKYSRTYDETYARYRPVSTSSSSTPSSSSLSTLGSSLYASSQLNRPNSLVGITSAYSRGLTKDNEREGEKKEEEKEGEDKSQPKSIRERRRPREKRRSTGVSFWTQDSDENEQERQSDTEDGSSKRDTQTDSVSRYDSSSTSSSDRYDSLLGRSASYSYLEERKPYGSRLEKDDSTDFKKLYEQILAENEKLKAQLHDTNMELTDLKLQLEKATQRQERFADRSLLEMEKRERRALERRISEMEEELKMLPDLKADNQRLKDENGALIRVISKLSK
Description: Activation of MYTP1 phosphorylation at Ser668 residue in phenylephrine-stimulated Wistar rat VSMCs at 50 uM preincubated for 60 mins followed by phenylephrine stimulation and measured upto 30 mins by Western blot analysis. Type of series: cell-based. The following applies: VSMC, filed as activator, time 90.0 min.

Series [16] has as its system VSMC. Description: Inhibition of isoproterenol-induced AKT phosphorylation at Thr308 residue in Wistar rat VSMCs at 50 uM preincubated for 60 mins followed by ISO stimulation and measured upto 30 mins by Western blot analysis. Type of series: cell-based. The following applies: time 90.0 min.
In series [17] the test system is VSMC. Description: Cytotoxicity against Wistar rat VSMCs assessed as reduction in cell viability at 50 uM incubated for 48 hrs by MTT assay. Type of series: toxicity, cell-based.
In a further series the test system is B16-F10. Briefly: Activation of PKA substrate phosphorylation in mouse B16-F10 cells incubated for 60 mins by Western blot analysis. Type of series: cell-based. As to conditions: filed as activator.
Series [18] addresses T1, Protein phosphatase 1 regulatory subunit 12A (Rattus norvegicus). Description: Activation of MYTP1 phosphorylation at Ser668 residue in Wistar rat VSMCs at 50 uM incubated for 60 mins by Western blot analysis. Type of series: cell-based. As to conditions: VSMC, filed as activator.
Series [19] relates to VSMC. Briefly: Activation of PKA substrate phosphorylation in Wistar rat VSMCs incubated for 60 mins by Western blot analysis. Type of series: cell-based. The following applies: filed as activator, dose 5-50 µM, DDE = dose-dependent effect.
For series [20], the target named is T1, Protein phosphatase 1 regulatory subunit 12A (Rattus norvegicus). Description: Activation of MYTP1 phosphorylation at Ser695 residue in phenylephrine-stimulated Wistar rat VSMCs at 50 uM preincubated for 60 mins followed by phenylephrine stimulation and measured upto 30 mins by Western blot analysis. Type of series: cell-based. As to conditions: VSMC, filed as activator, time 90.0 min.

The subject of series [21] is VSMC. Briefly: Inhibition of isoproterenol-induced PKA substrate phosphorylation in Wistar rat VSMCs at 10 uM preincubated for 60 mins followed by ISO stimulation and measured upto 30 mins by Western blot analysis. Type of series: cell-based. The following applies: time 90.0 min.
The subject of series [22] is VSMC. Briefly: Inhibition of AKT phosphorylation at Ser473 residue in Wistar rat VSMCs at 10 uM measured upto 60 mins by Western blot analysis. Type of series: cell-based.
The test system of series [23] is VSMC. Briefly: Activation of PKA substrate phosphorylation in Wistar rat VSMCs at 10 uM incubated for 60 mins by Western blot analysis. Type of series: cell-based. The following applies: filed as activator.
The subject of series [24] is VSMC. Description: Activation of PKA in isoproterenol-induced Wistar rat VSMCs assessed as fold increase in intracellular cAMP concentration at 10 uM measured 20 mins after ISO stimulation. Type of series: cell-based. As to conditions: filed as activator.
The subject of series [25] is VSMC. Briefly: Activation of PKA substrate phosphorylation in Wistar rat VSMCs at 10 uM incubated for 60 mins in the presence of IBMX by Western blot analysis. Type of series: cell-based. The following applies: filed as activator.

Calls of active or inactive are those of the source. The calls are words filed in the database; no cut-off is given here.

As to `CC(C)Cn1c(=O)n(C)c(=O)c2nc[nH]c21`, the outcome in the series with VSMC [1], with VSMC [2], in the series with VSMC [3] and with VSMC [4] was Active.

Take `CC[C@H](CC(=O)O)c1c2c(c(O)c3c1O[C@H](C)[C@H](C)C3=O)C=CC(C)(C)O2`: the inhibition result in the series on VSMC [5], in the series on VSMC [14] and in the series with VSMC [16] was “Active” throughout. For the same compound, the result (with VSMC [6]; in the series on VSMC [7]; with VSMC [8]; in the series with VSMC [11]; in the series with VSMC [12]; in series [13]) was Active. Also, the result (in the series on VSMC [3]; in series [15]; in the series with B16-F10; in series [18]; in series [20]) was Active. In addition, the fold change (FC) in the series with VSMC [9] was 2.5. Moreover, the IC50 in series [10] was 6 µM. Further, the Activity is 80% in the series on VSMC [17] and “Dde” in the series on VSMC [19].

With `O=S(=O)(NCCNC/C=C/c1ccc(Br)cc1)c1cccc2cnccc12`, in the series with VSMC [21], the inhibition entry is “Active”.

As for `O=c1cc(N2CCOCC2)oc2c(-c3ccccc3)cccc12`, the inhibition entry in the series on VSMC [22] is “Active”. The result in the series on VSMC [23], with VSMC [3] and in the series on VSMC [25] was Active. Moreover, the fold change (FC) in the series on VSMC [24] came to 2.
